Laboratory results taken from patent US20030220373A1, “Therapeutic uses of PPAR mediators” (priority 2000, published 2003).

What was measured:
ABC1 expression [1] = test: ABC1 up-regulation in human THP-1 cells by PPAR mediators (Northern blotting; also quantitative PCR Taqman); format: cell-based; settings: for up-regulation of ABC1 expression: treatment at 1 and 10 μM, Northern blotting (FIG. 1, FIG. 2)
Procedure: THP-1 cells, a human monocytic cell line, are maintained in RPMI with 10% FCS (fetal calf serum)/[…] gentamycin/25 mM Hepes. Cells are plated at approximately 1×10^5 per cm^2 in RPMI/10% charcoal-stripped FCS (Hyclone) the presence or absence of 100 ng/ml PMA (phorbol myritic acid)(Gibco BRL) and the indicated concentrations of test compound or DMSO (dimethyl sulfoxide). Test compounds are refreshed daily. Alternatively, cells are incubated with […] AcLDL (acetylated LDL) as positive control. After 48 or 72 hours, cellular RNA is isolated with Trizol® (Gibco) according to the manufacturer's instructions. Total RNA ([…]) is subjected to Northern blotting. The fragment used as a probe is a 431bp PCR product of ABC1 corresponding to nucleotides (nt's) 3306-3737 of Genbank Ace # AJ012376 (T. Langmann et al,1999, BBRC 257, 29-33). The sequences of the primers usd to generate the fragment are: […] nt. pos 3306-3326 (forward); […] nt. pos 3737-3711 (reverse). Blots are hybridized with this probe labelled with [a32P]dCTP (Amersham) with ExpressHyb® (Clontech, Palo Alto Calif.) according to manufacturer's protocol, washed, and exposed to X-ray film. Resulting signals are quantitated by densitometry.
A representative example of a Northern blotting analysis is represented in FIG. 1 and corresponding graph bar in FIG. 2.

ABC1 expression [2] = test: ABC1 up-regulation in human primary hepatocytes (RNA analysis); format: cell-based; settings: human primary hepatocytes (FIG. 4)
Procedure: Assay Example 2: ABC 1 Up-regulation in Human Hepatocytes and Human Macrophages Derived Monocytes by Fenofibric Acid, and for Wy 14,643 and Related Cholesterol Efflux in Macrophages Human liver specimens are collected from healthy multiorgan donors for transplantation who died after severe traumatic brain injury. Hepatocytes are obtained by a two-step collagenase perfusion (REF). Cells are resuspended in minimal essential medium with Earl's salts with 10% FCS, 2 mM glutamine, […] gentamycin, seeded at density of 1.5×10^5 cells/cm^2 in plastic culture dishes coated with 20 mg rat tail collagene type I (Sigma).Medium is renewed after 4 hours of adhesion. After 20 hours the medium is discarded and differents compounds added at the indicated concentrations in serum-free medium. Total cellular RNA is extracted from differentated macrophages treated for 6 hours with different compounds using the RNA plus kit (Bioprobe System, Montreuil, france). RNA from human hepatocytes are prepared as described by Chomczynski and Sacchi. For RT-PCR analysis, total RNA is reverse transcribed using random hexamer primers and Superscript reverse transcriptase (Life Technologies) as sebsequently amplified by PCR. The resulting products are separated on a 1% agrose gel and stained with ethidium bromide.

SMILES	melting point	also measured
c1ccc2nc(COc3ccc(COc4ccc(-c5nnn[nH]5)cc4)cc3)ccc2c1 [Example 11, 5-[4-(4-(2-quinolinylmethyloxy)benzyloxy)phenyl]tetrazole]	210 to 213 °C	–
c1ccc2nc(COc3ccc(COc4ccc(Cc5nnn[nH]5)cc4)cc3)ccc2c1 [Example 12, 5-[4(4-(2-quinolinylmethyloxy)benzyloxy)benzyl]tetrazole]	179 to 181 °C	–
c1cc(OCc2ccc3ccccc3n2)cc(OCc2ccccc2Cc2nnn[nH]2)c1 [Example 28, 5-(2-(3-(2-quinolinylmethyloxy)phenoxymethyl)benzyl)tetrazole]	145.5 to 147 °C	–
c1cc(OCc2ccc3ccccc3n2)cc(OCc2ccccc2-c2nnn[nH]2)c1 [Example 28, 5-(2-(3-(2-quinolinylmethyloxy)phenoxymethyl)phenyl)tetrazole]	166 to 170 °C	–
c1cc(OCc2cccc(-c3nnn[nH]3)c2)cc(OCc2ccc3ccccc3n2)c1 [Example 28, 5-(3-(3-(2-quinolinylmethyloxy)phenoxymethyl)phenyl)tetrazole]	115 °C (dec.)	–
c1cc(OCc2ccc(Cc3nnn[nH]3)cc2)cc(OCc2ccc3ccccc3n2)c1 [Example 28, 5-(4-(3-(2-quinolinylmethyloxy)phenoxymethyl)benzyl)tetrazole]	149 to 151 °C	–
c1cc(COc2ccc(OCc3ccc4ccccc4n3)cc2)cc(OCc2nnn[nH]2)c1 [Example 32, 5-(3-(4-(2-quinolinylmethyloxy)phenoxymethyl)phenoxymethyl)tetrazole]	131 to 132 °C	–
Cc1cccc(COc2cccc(OCc3ccc4ccccc4n3)c2)c1C(=O)O [RPR52]	–	up-regulation of ABC1 expression (ABC1 expression [1]): up-regulation of ABC1 expression
Cc1cc(OCc2ccccc2)cc(OCc2cccc(OCc3ccc4ccccc4n3)c2)c1C(=O)O [RPR64]	–	up-regulation of ABC1 expression (ABC1 expression [1]): up-regulation of ABC1 expression
Cc1cccc(Nc2cc(Cl)nc(SCC(=O)O)n2)c1C [Wy 14,643, pyrinixic acid]	–	ABC1 up-regulation (ABC1 expression [2]): ABC1 up-regulation
c1ccc(Cc2nnn[nH]2)c(COc2ccc(OCc3ccc4ccccc4n3)cc2)c1 [compound of formula VI, 5-[2-(4-(2-quinolinylmethoxy)phenoxymethyl)benzyl]tetrazole]	–	increase in up-regulation of ABC 1 expression relative to treatment with DMSO (ABC1 expression [1]; relative to DMSO): fourteen fold increase

Now from value to compound, other results behind:

melting point	SMILES	also measured
86 to 87 °C	N#Cc1cccc(OCc2cccc(OCc3ccc4ccccc4n3)c2)c1 [Example 7, 3-[3-(2-quinolinylmethyloxy)benzyloxy]benzonitrile]	–
169 to 172 °C	c1cc(COc2cccc(-c3nnn[nH]3)c2)cc(OCc2ccc3ccccc3n2)c1 [Example 10, 5-[3-(3-(2-quinolinylmethyloxy)benzyloxy)-phenyl]tetrazole]	–
100 to 101 °C	COC(=O)c1ccc(OCc2cccc(OCc3ccc4ccccc4n3)c2)c(OC)c1 [Example 14, methyl 3-methoxy-4-(3-(2-quinolinylmethyloxy)benzyloxy)-benzoate]	–
188 to 190 °C	COc1cc(C(=O)O)ccc1OCc1cccc(OCc2ccc3ccccc3n2)c1 [Example 15, 3-methoxy-4-(3-(2-quinolinylmethyloxy)benzyloxy)benzoic acid]	–
93 to 94 °C	COC(=O)c1cccc(COc2cccc(OCc3ccc4ccccc4n3)c2)c1 [Example 19, methyl 3-(3-(2-quinolinylmethyloxy)phenoxymethyl)benzoate]	–
149 to 151 °C	O=C(O)c1cccc(COc2cccc(OCc3ccc4ccccc4n3)c2)c1 [Example 20, 3-(3-(2-quinolinylmethyloxy)phenoxymethyl)-benzoic acid]	–
